Results taken from patent US12203089B2, “Plants having increased tolerance to herbicides” (BASF SE, priority 2015, dated 2025).

What was measured:
Assay type in all cases: in vivo
[1] = system: Arabidopsis thaliana expressing AtCesA1_G1009D_G1013R (SEQ ID 1); experiment: 48-well plate growth inhibition, T2 seeds, tolerance factor; details: based on IC50 values of growth inhibition, seven to ten days after seeding
Procedure: (§1) Transgenic Arabidopsis thaliana plants (T2) are assayed for improved tolerance to azine herbicides like e. g. 6-cyclopentyl-N4-(2,3,4,5,6-pentafluorophenyl)-1,3,5-triazine-2,4-diamine in 48-well plates. Therefore, T2 seeds are surface sterilized by stirring for 5 min in ethanol+water (70+30 by volume), rinsing one time with ethanol+water (70+30 by volume) and two times with sterile, deionized water. The seeds are resuspended in 0.1% agar dissolved in water (w/v) Four to five seeds per well are plated on solid nutrient medium consisting of half-strength murashige skoog nutrient solution, pH 5.8 (Murashige and Skoog (1962) Physiologia Plantarum 15: 473-497). Compounds are dissolved in dimethylsulfoxid (DMSO) and added to the medium prior solidification (final DMSO concentration 0.1%). Multi well plates are incubated in a growth chamber at 22° C., 75% relative humidity and 110 μmol Phot*m^−2*s^−1 with 14:10 h light:dark photoperiod. Growth inhibition is evaluated seven to ten days after seeding in comparison to wild type plants. Tolerance factors are calculated based on IC50 values of growth inhibition of transformed versus non-transformed Arabidopsis plants.

[2] = system: Arabidopsis thaliana expressing AtCesA3_wt (SEQ ID 3); experiment: as above; details: based on IC50 values of growth inhibition, seven to ten days after seeding
Procedure: as §1

[3] = system: Arabidopsis thaliana expressing AtCesA3_S983F_S1037F (SEQ ID 3); experiment: as above; details: based on IC50 values of growth inhibition, seven to ten days after seeding
Procedure: as §1

[4] = system: Arabidopsis thaliana expressing AtCesA1_P1010L_G1013R (SEQ ID 1); experiment: as above; details: based on IC50 values of growth inhibition, seven to ten days after seeding
Procedure: as §1

[5] = system: Arabidopsis thaliana expressing AtCesA1_wt (SEQ ID 1); experiment: as above; details: based on IC50 values of growth inhibition, seven to ten days after seeding
Procedure: as §1

[6] = system: Brassica napus expressing BnaAnng01240D (SEQ ID 20) variant S1038F; experiment: Greenhouse herbicide tolerance, post emergent; details: 7 days after treatment
Procedure: (§2) T1/T2 transgenic plants of Brassica napus containing cellulose synthase sequences or mutated gene variants thereof are tested for improved tolerance to herbicides in greenhouse studies with azine herbicides. For the pre-emergence treatment, the herbicides are applied directly after sowing by means of finely distributing nozzles. The containers are irrigated gently to promote germination and growth and subsequently covered with transparent plastic hoods until the plants have rooted. This cover causes uniform germination of the test plants, unless this has been impaired by the herbicides. For post emergence treatment, the test plants are first grown to a height of 3 to 15 cm, depending on the plant habit, and only then treated with the herbicides. For this purpose, the test plants are either sown directly, and grown in the same containers or they are first grown separately and transplanted into the test containers a few days prior to treatment.
(§3) Herbicide injury evaluations are taken at 1, 2 and 3 weeks after treatment. Plant biomass reduction is rated on a scale of 0% to 100%, 0% being no reduction of biomass compared to untreated control, and 100% being complete absence of biomass.

[7] = system: Brassica napus expressing BnaA03g55200D (SEQ ID 12) variant S1041L; experiment: Greenhouse herbicide tolerance, post emergent; details: 7 days after treatment
Procedure: as §2, §3

[8] = system: Brassica napus expressing BnaA03g52020D (SEQ ID 15) variant G1015R; experiment: Greenhouse herbicide tolerance, post emergent; details: 7 days after treatment
Procedure: as §2, §3

Brassica napus wildtype = experiment: Greenhouse herbicide tolerance, post emergent; details: 7 days after treatment
Procedure: as §2, §3

[9] = system: Brassica napus expressing BnaA01g04600D (SEQ ID 21) variant G1012R; experiment: Greenhouse herbicide tolerance, post emergent; details: 7 days after treatment
Procedure: as §2, §3

[10] = system: Brassica napus expressing BnaA03g55200D (SEQ ID 12) variant S1038F; experiment: Greenhouse herbicide tolerance, post emergent; details: 7 days after treatment
Procedure: as §2, §3

[11] = system: Brassica napus expressing BnaAnng01240D (SEQ ID 20) variant S1038F; experiment: 6-well plate injury test, T1 seeds on vermiculite; details: 7 days after treatment
Procedure: (§4) Transgenic Brassica napus plants are assayed for improved tolerance to azine herbicides like e. g. 6-cyclopentyl-N4-(2,3,4,5,6-pentafluorophenyl)-1,3,5-triazine-2,4-diamine in 6-well plates. Therefore, 5-6 T1 seeds are sown on vermiculite and watered with half-strength murashige skoog nutrient solution, pH 5.8 (Murashige and Skoog (1962) Physiologia Plantarum 15: 473-497). Compounds are dissolved in dimethylsulfoxid (DMSO) and added to the medium (final DMSO concentration 0.1%). Multi well plates are incubated in a growth chamber at 22° C., 75% relative humidity and 110 μmol Phot*m^−2*s^−1 with 14: 10 h light: dark photoperiod. Growth inhibition is evaluated seven to ten days after seeding in comparison to wild type plants. Plant injury is rated on a scale of 0% to 100%, 0% being no injury and 100% being complete death.

[12] = system: Brassica napus expressing BnaAnng01240D (SEQ ID 20) variant S1041L; experiment: 6-well plate injury test, T1 seeds on vermiculite; details: 7 days after treatment
Procedure: as §4

[13] = BnaAnng01240D S1038F event 1, 5*10^-8M
[14] = BnaAnng01240D S1038F event 1, 10^-6M
[15] = BnaAnng01240D S1038F event 1, 10^-7M
[16] = BnaAnng01240D S1038F event 1, 10^-8M
[17] = BnaAnng01240D S1041L event 1, 5*10^-8M
[18] = BnaAnng01240D S1041L event 1, 10^-6M
[19] = BnaAnng01240D S1041L event 1, 10^-7M
[20] = BnaAnng01240D S1041L event 1, 10^-8M

Compound: Nc1nc(Nc2c(F)c(F)c(F)c(F)c2F)nc(C2CCCC2)n1 [6-cyclopentyl-N4-(2,3,4,5,6-pentafluorophenyl)-1,3,5-triazine-2,4-diamine]
- Relative tolerance rate as compared to non-transgenic Arabidopsis plants (non-transgenic = 1.0) [1]: 1
- Relative tolerance rate as compared to non-transgenic Arabidopsis plants (non-transgenic = 1.0) [2]: 1
- Relative tolerance rate as compared to non-transgenic Arabidopsis plants (non-transgenic = 1.0) [3]: 10
- Relative tolerance rate as compared to non-transgenic Arabidopsis plants (non-transgenic = 1.0) [4]: 30
- Relative tolerance rate as compared to non-transgenic Arabidopsis plants (non-transgenic = 1.0) [5]: 1
- average phytotox value ([6]; 1st listed line, 3.9 g/ha): 1%
- average phytotox value ([6]; 1st listed line, 7.8 g/ha): 5%
- average phytotox value ([6]; 1st listed line, 15.6 g/ha): 8%
- average phytotox value ([6]; 1st listed line, 31.25 g/ha): 27%
- average phytotox value ([6]; 2nd listed line, 3.9 g/ha): 1%
- average phytotox value ([6]; 2nd listed line, 7.8 g/ha): 10%
- average phytotox value ([6]; 2nd listed line, 15.6 g/ha): 41%
- average phytotox value ([6]; 2nd listed line, 31.25 g/ha): 50%
- average phytotox value ([7]; 3.9 g/ha): 15%
- average phytotox value ([7]; 7.8 g/ha): 27%
- average phytotox value ([7]; 15.6 g/ha): 42%
- average phytotox value ([7]; 31.25 g/ha): 51%
- average phytotox value ([8]; 1st listed line, 3.9 g/ha): 18%
- average phytotox value ([8]; 1st listed line, 7.8 g/ha): 43%
- average phytotox value ([8]; 1st listed line, 15.6 g/ha): 41%
- average phytotox value ([8]; 1st listed line, 31.25 g/ha): 53%
- average phytotox value ([8]; 2nd listed line, 3.9 g/ha): 37%
- average phytotox value ([8]; 2nd listed line, 7.8 g/ha): 61%
- average phytotox value ([8]; 2nd listed line, 15.6 g/ha): 45%
- average phytotox value ([8]; 2nd listed line, 31.25 g/ha): 67%
- average phytotox value (Brassica napus wildtype; 3.9 g/ha): 23%
- average phytotox value (Brassica napus wildtype; 7.8 g/ha): 34%
- average phytotox value (Brassica napus wildtype; 15.6 g/ha): 59%
- average phytotox value (Brassica napus wildtype; 31.25 g/ha): 73%
- average phytotox value ([9]; 3.9 g/ha): 17%
- average phytotox value ([9]; 7.8 g/ha): 35%
- average phytotox value ([9]; 15.6 g/ha): 35%
- average phytotox value ([9]; 31.25 g/ha): 60%
- average phytotox value ([10]; 1st listed line, 3.9 g/ha): 23%
- average phytotox value ([10]; 1st listed line, 7.8 g/ha): 25%
- average phytotox value ([10]; 1st listed line, 15.6 g/ha): 29%
- average phytotox value ([10]; 1st listed line, 31.25 g/ha): 34%
- average phytotox value ([10]; 2nd listed line, 3.9 g/ha): 7%
- average phytotox value ([10]; 2nd listed line, 7.8 g/ha): 19%
- average phytotox value ([10]; 2nd listed line, 15.6 g/ha): 20%
- average phytotox value ([10]; 2nd listed line, 31.25 g/ha): 44%
- average phytotox value [11, 13]: 50%
- average phytotox value [11, 14]: 80%
- average phytotox value [11, 15]: 60%
- average phytotox value [11, 16]: 0%
- average phytotox value ([11]; BnaAnng01240D S1038F event 1, 10^-9M): 0%
- average phytotox value ([11]; BnaAnng01240D S1038F event 2, 5*10^-8M): 65%
- average phytotox value ([11]; BnaAnng01240D S1038F event 2, 10^-6M): 80%
- average phytotox value ([11]; BnaAnng01240D S1038F event 2, 10^-7M): 65%
- average phytotox value ([11]; BnaAnng01240D S1038F event 2, 10^-8M): 0%
- average phytotox value ([11]; BnaAnng01240D S1038F event 2, 10^-9M): 0%
- average phytotox value [12, 17]: 55%
- average phytotox value [12, 18]: 80%
- average phytotox value [12, 19]: 70%
- average phytotox value [12, 20]: 0%
- average phytotox value ([12]; BnaAnng01240D S1041L event 1, 10^-9M): 0%
- average phytotox value ([12]; BnaAnng01240D S1041L event 2, 5*10^-8M): 65%
- average phytotox value ([12]; BnaAnng01240D S1041L event 2, 10^-6M): 80%
- average phytotox value ([12]; BnaAnng01240D S1041L event 2, 10^-7M): 80%
- average phytotox value ([12]; BnaAnng01240D S1041L event 2, 10^-8M): 0%
- average phytotox value ([12]; BnaAnng01240D S1041L event 2, 10^-9M): 0%

Compound: Nc1nc(Nc2nc(F)c(F)c(Cl)c2F)nc(C2(F)CCCC2)n1 [N2-(4-chloro-3,5,6-trifluoro-2-pyridyl)-6-(1-fluorocyclopentyl)-1,3,5-triazine-2,4-diamine]
- Relative tolerance rate as compared to non-transgenic Arabidopsis plants (non-transgenic = 1.0) [1]: 1
- Relative tolerance rate as compared to non-transgenic Arabidopsis plants (non-transgenic = 1.0) [2]: 1
- Relative tolerance rate as compared to non-transgenic Arabidopsis plants (non-transgenic = 1.0) [3]: 5
- Relative tolerance rate as compared to non-transgenic Arabidopsis plants (non-transgenic = 1.0) [4]: 1
- Relative tolerance rate as compared to non-transgenic Arabidopsis plants (non-transgenic = 1.0) [5]: 2
- average phytotox value ([6]; 1st listed line, 7.8 g/ha): 7%
- average phytotox value ([6]; 1st listed line, 15.6 g/ha): 17%
- average phytotox value ([6]; 1st listed line, 31.25 g/ha): 47%
- average phytotox value ([6]; 1st listed line, 62.5 g/ha): 54%
- average phytotox value ([6]; 2nd listed line, 7.8 g/ha): 10%
- average phytotox value ([6]; 2nd listed line, 15.6 g/ha): 33%
- average phytotox value ([6]; 2nd listed line, 31.25 g/ha): 68%
- average phytotox value ([6]; 2nd listed line, 62.5 g/ha): 71%
- average phytotox value ([7]; 7.8 g/ha): 24%
- average phytotox value ([7]; 15.6 g/ha): 53%
- average phytotox value ([7]; 31.25 g/ha): 62%
- average phytotox value ([7]; 62.5 g/ha): 76%
- average phytotox value ([8]; 1st listed line, 7.8 g/ha): 34%
- average phytotox value ([8]; 1st listed line, 15.6 g/ha): 43%
- average phytotox value ([8]; 1st listed line, 31.25 g/ha): 50%
- average phytotox value ([8]; 1st listed line, 62.5 g/ha): 73%
- average phytotox value ([8]; 2nd listed line, 7.8 g/ha): 16%
- average phytotox value ([8]; 2nd listed line, 15.6 g/ha): 41%
- average phytotox value ([8]; 2nd listed line, 31.25 g/ha): 62%
- average phytotox value ([8]; 2nd listed line, 62.5 g/ha): 72%
- average phytotox value (Brassica napus wildtype; 7.8 g/ha): 42%
- average phytotox value (Brassica napus wildtype; 15.6 g/ha): 56%
- average phytotox value (Brassica napus wildtype; 31.25 g/ha): 70%
- average phytotox value (Brassica napus wildtype; 62.5 g/ha): 83%
- average phytotox value ([9]; 7.8 g/ha): 34%
- average phytotox value ([9]; 15.6 g/ha): 61%
- average phytotox value ([9]; 31.25 g/ha): 65%
- average phytotox value ([9]; 62.5 g/ha): 72%
- average phytotox value ([10]; 1st listed line, 7.8 g/ha): 8%
- average phytotox value ([10]; 1st listed line, 15.6 g/ha): 6%
- average phytotox value ([10]; 1st listed line, 31.25 g/ha): 47%
- average phytotox value ([10]; 1st listed line, 62.5 g/ha): 54%
- average phytotox value ([10]; 2nd listed line, 7.8 g/ha): 21%
- average phytotox value ([10]; 2nd listed line, 15.6 g/ha): 51%
- average phytotox value ([10]; 2nd listed line, 31.25 g/ha): 47%
- average phytotox value ([10]; 2nd listed line, 62.5 g/ha): 68%
- average phytotox value ([11]; BnaAnng01240D S1038F event 1, 5*10-7): 30%
- average phytotox value [11, 13]: 5%
- average phytotox value [11, 14]: 85%
- average phytotox value [11, 15]: 30%
- average phytotox value [11, 16]: 0%
- average phytotox value ([12]; BnaAnng01240D S1041L event 1, 5*10-7): 90%
- average phytotox value [12, 17]: 0%
- average phytotox value [12, 18]: 90%
- average phytotox value [12, 19]: 10%
- average phytotox value [12, 20]: 0%
